The source made the active and inactive calls. The calls are words filed in the database; no cut-off is given here.
Key:
[1] = molecular target: T1, Acetylcholinesterase (Bos taurus) (UniProt P23795); test: Compound was tested for acetylcholinesterase inhibition at concentration uM; No Inhibition
T1 sequence (whole entry): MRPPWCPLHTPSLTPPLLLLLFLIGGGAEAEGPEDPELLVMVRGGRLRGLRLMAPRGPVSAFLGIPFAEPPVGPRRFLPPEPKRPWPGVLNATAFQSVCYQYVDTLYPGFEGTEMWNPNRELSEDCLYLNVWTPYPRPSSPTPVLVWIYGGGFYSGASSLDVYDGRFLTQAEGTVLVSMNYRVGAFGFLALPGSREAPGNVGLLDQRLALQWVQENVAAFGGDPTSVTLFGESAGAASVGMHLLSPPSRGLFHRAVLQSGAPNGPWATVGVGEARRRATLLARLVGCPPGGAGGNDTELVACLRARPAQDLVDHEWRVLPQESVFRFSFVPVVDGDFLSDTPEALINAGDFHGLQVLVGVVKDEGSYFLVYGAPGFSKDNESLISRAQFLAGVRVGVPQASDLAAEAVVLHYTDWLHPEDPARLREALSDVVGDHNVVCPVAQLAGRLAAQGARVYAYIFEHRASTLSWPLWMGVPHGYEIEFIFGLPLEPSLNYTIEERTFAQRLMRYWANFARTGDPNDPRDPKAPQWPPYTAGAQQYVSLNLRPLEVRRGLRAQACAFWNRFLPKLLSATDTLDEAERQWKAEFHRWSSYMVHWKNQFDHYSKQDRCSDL

[2] = molecular target: T1, Acetylcholinesterase (Bos taurus); test: Compound was tested for acetylcholinesterase inhibitory activity at concentration uM; Inactive

Compound	inhibition [1]	inhibition [2]
C/C=C1\C2C=C(C)C[C@]1(N)c1ccc(O)c(O)c1C2	inactive	–
C/C=C1\C2C=C(C)C[C@]1(N)c1ccc(O)cc1C2	–	inactive

From ChEMBL document CHEMBL1131362, “Synthesis and anticholinesterase activity of huperzine A analogues containing phenol and catechol replacements for the pyridone ring” (Bioorg Med Chem Lett, 1998)
